Measured values from patent US7244557B2, “Method of screening modulators of Nod1 signaling” (Regents of the University of Michigan, priority 2003, dated 2007).

Target: T1, NOD1ΔLRR (Homo sapiens, UniProt Q9Y239)
T1 construct: pcDNA3-NOD1-ΔLRR(1–648)-FLAG; expressed in transfected cells; host or cells: HEK293T
T1 sequence (Q9Y239 1-648): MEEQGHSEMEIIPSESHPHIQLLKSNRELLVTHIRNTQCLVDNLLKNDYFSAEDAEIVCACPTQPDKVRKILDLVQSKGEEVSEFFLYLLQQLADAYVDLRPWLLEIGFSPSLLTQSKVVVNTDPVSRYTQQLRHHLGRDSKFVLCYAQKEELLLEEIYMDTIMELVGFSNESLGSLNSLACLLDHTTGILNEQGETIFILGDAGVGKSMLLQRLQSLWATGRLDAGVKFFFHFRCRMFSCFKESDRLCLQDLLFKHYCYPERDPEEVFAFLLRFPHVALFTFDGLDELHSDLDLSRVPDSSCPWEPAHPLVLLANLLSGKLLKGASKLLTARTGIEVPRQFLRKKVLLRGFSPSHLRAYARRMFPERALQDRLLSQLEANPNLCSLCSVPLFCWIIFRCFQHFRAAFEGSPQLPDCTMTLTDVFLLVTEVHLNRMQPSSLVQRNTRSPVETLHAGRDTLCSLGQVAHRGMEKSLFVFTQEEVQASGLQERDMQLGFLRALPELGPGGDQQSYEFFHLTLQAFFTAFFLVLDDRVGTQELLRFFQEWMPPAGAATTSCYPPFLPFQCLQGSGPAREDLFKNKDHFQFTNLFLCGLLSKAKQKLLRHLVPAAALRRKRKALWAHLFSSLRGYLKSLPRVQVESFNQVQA
Experiment: NF-κB activation assay, cells expressing mutant NOD1 lacking LRRs
Assay type: cell-based
Description: A) Structure of purified PGN fraction from B. subtilis (GM3P) and synthetic PGN-related compounds used in the study. B) Structure of MDP and four copies of GlcNAc-MurNAc with attached L-Ala-γ-D-Gln (4 mer) are indicated by closed and dotted boxes, respectively. C) The ability of cells were transfected with 0.3 ng pcDNA3-NOD1-Flag, 0.1 ng pcDNA3-Nod2 (NOD2) or vector control and reporter pBxIV-luc and pEF-BOS-β-gal plasmids to activate NF-κB. D) The ability of synthetic peptides, iE-DAP and iQ-DAP to stimulate NF-κB activation in the presence of control vector (−) and plasmids encoding NOD1 wild-type, mutant NOD1 lacking LRRs (NOD1ΔLRR) and NOD2. E) The ability of iE-DAP, iQ-DAP and sBLP (1 μg/ml) to activate NF-κB.
Reagents. LPS from S. typhimurium, intact and alkaline-detoxified LPS from E. coli O55:B5 as well as purified lipid A preparations of E. coli F583, MDP, DAP and dsRNA were obtained from Sigma-Aldrich (St. Louis, Mo.). PGN from S. aureus was from Fluka-Chemie (Buchs, Germany). Palmitoyl-Cys ((RS)-2,3-di(palmitoyloxy)-propyl)-Ala-Gly) (sBLP), was obtained from Bachem (Torrance, Calif.). […] The amino acid composition of E. coli O55:B5 LPS was determined using AccQ·Tag amino acid analysis system (Waters, Milford, Mass.) after hydrolysis at 110° C. for 24 hr. […]

In the case of “γ-D-glutamy-meso-diaminopimelic acid [iE-DAP]”, the “NF-κB activation by mutant NOD1 lacking the LRRs” value is reported as “did not respond”.
